From patent US12251449B2, “Synthetic multidomain peptide biomaterials that inhibit inducible nitric oxide synthase” (William Marsh Rice University, priority 2019, dated 2025)
Entries after “also recorded” stand apart in the source; their conditions may differ. *1 amine or outer side, *2 acyl side, *3 side chain or, on linkers, in order; H or OH if unused. Where a SMILES comes first, the peptide text is derived from it. [ ]: non-standard residue; d: D form. X1 = CC(=N)NCCCC[C@H](N[*:1])C(=O)[*:2]

What was measured:
[1] = IgG release kinetics from hydrogels; format: physicochemical; conditions: compared with alginate and K2-MDP
Text: Whether the drug-mimicking L-NIL-MDP hydrogel could effectively load and control the delivery of IgG compared to other biomaterials was investigated.

[2] = test system: MOC1 cells; experiment: Live-dead viability of MOC1 cells on L-NIL-MDP hydrogel; format: cell-based, mouse; conditions: cultured on hydrogel over 7 days
Description: Cell culture. The murine oral cancer cell line, MOC1 was provided by Dr. Ravindra Uppaluri (Dana-Farber Cancer Institute, Harvard University, Boston, MA) and maintained as previously described (Judd et al., 2012). For in vitro experiments, mouse MOC1 cells were cultured at 37° C. with 5% CO2 in media routinely used for maintaining this cell line (Judd et al., 2012). For live-dead viability studies done using 2-D culture, peptide hydrogel 70 μL in volume (thickness approximately 1.75 mm) were pipetted into the wells of Lab-Tek 16 well chamber slides (Thermo Fisher, Rochester, NY). The gels were pipetted carefully into the bottom of the wells, and the plates were gently tapped down onto the bench top before shear recovery to flatten the pipetted gels and facilitate uniform spreading of the material. After pipetting, time was allowed for the samples to shear recover (5-10 min) before the addition of 200 μL cell media and 5,000 MOC1 cells. Each time point (days 1, 3, 7) had separate slides prepared with duplicate gels. Cell media was replaced every 2 days, carefully pipetting to avoid dislodging the gel material. […] Image processing was done with NIS Elements (Nikon Instruments, Melville, NY), and Imaris Cell Counting software (Bitplane, Concord, MA) was used to quantify live-dead percentages.

[3] = test system: MOC1 tumors; experiment: MOC orthotopic murine model of oral cancer (Example 9); conditions: established 4-5 mm MOC1 tumors, single 30 μl intratumoral injection
Description: MOC orthotopic murine model of oral cancer. MOC1 tumors were established by injecting 2×10^6 cells (70%:30% cells: Matrigel®Matrix) into the maxillary vestibule of the left oral cavity in C57BL/6J mice. […] Tumor growth was monitored by tumor size measurements (in diameter) taken at least two times per week using digital calipers to measure the longest dimension (single dimension). Data was then analyzed for Kaplan-Meier survival and tumor growth curves. […] Excessive tumor burden, defined as tumor diameter reaching 12 mm, tumor ulceration, or a weight loss of greater than 20% were factors that were considered for all endpoints in tumor growth and survival data.
Statistical methods. Statistical analyses were performed using Prism 7.0 (GraphPad, San Diego, CA). Statistical analyses for Kaplan-Meier survival curves were performed using the Log-rank/Mantel-Cox test. Statistical significance for tumor growth curves was determined by a two-way ANOVA test followed by selected comparison using Tukey's multiple comparison tests with multiple comparison correction. All p values were two-sided and p values less than 0.05 were considered significant.

[4] = CDN drug release kinetics from hydrogels; format: physicochemical
Description: Drug release kinetics. For release kinetics studies of CDN release from various hydrogel formulations, aliquots of CDN-loaded gel (30 μL each) were deposited into 96 well Falcon® flat bottom plates (Becton Dickinson Labware, Franklin Lakes, NJ). 30 μL gel was pipetted to generate a cylindrical puck in each well for each experiment. The pipetted gels were allowed to shear recover for approximately 5-10 min before adding 200 μL of the relevant buffer to the top of the gels (1× HBSS for all MDPs, 1× DPBS for collagen, Matrigel, 1× HBSS with 0.1 M CaCl2) for alginate, etc. according to the gelation requirements of the material). The addition of buffer was defined as t=0 for the beginning of release kinetics experiments. Table 1 summarizes the material conditions and preparation methods used for various comparative CDN delivery kinetics studies.
A Nanodrop 2000C Spectrophotometer (Thermo Scientific) was used to measure drug release by UV absorbance at 259 nm for CDN ML RR-S2 CDA, using an extinction coefficient of 24,000 M^−1cm^−1 (259 nm). Absorbance measurements were obtained by removing […] from the top of the liquid buffers above the loaded gels, over time measuring the increase in absorbance. Over the course of the first 24 hours, release of CDN was measured usually every 1-2 hours and converted to total percent released, with additional measurements also made every 24 hours for up to a week to establish when equilibrium had been reached.

[5] = test system: iNOS; experiment: Anti-nitrotyrosine immunostaining of subcutaneously injected hydrogels; format: in vivo, mice; conditions: subcutaneous implants, 3 and 7 days post injection
Description: Subcutaneous experiments and histology. C57BL/6J female mice were purchased from The Jackson Laboratory at age 8-12 weeks for subcutaneous characterization experiments. Mice were housed under specific pathogen-free conditions in standard temperature and lighting conditions with free access to food and water, and experiments were conducted with approval of the Institutional Animal Care and Use Committee (IACUC) at Rice University and according to NIH guidelines. Mice were injected with 100 μL MDP hydrogels in each of four separate sites in the subcutaneous space of the dorsal flank after the skin was shaved and sterilized with alcohol. At days 3, 7, 14, and 21 the mice were euthanized and the dorsal skin around the entire implant was removed, fixed overnight in 10% neutral buffered formalin, processed and paraffin embedded, and finally sectioned at […] thickness for staining using standard Masson's trichrome or hematoxylin and eosin (H&E) procedures, as well as immunohistochemical analyses (e.g., anti-nitrotyrosine IHC, or α-SMA blood vessel analysis).
Immunohistochemistry staining was performed on hydrogel implant tissue sections to further study in vivo properties of the L-NIL-MDP compared to related cationic MDPs. Anti-nitrotyrosine immunostaining was used to assess relative levels of nitrosylation of tyrosine within and around the subcutaneously injected hydrogel implants as a marker of iNOS inhibition (FIGS. 7A-H). It is known that the formation of nitric oxide (NO) and other nitrogen oxides in vivo can lead to observable post-translation modifications of peptides and proteins (Ischiropoulos, 2003). For example, surface-exposed 3-nitrotyrosine can be used as a marker of cell or tissue inflammation and damage by reactive nitrogen and oxygen species such as NO (Ahsan, 2013). The higher the local levels of iNOS activity, the greater should be the density of nitrosylated tyrosine. Therefore, visualization of nitrotyrosine levels by targeted antibodies can serve as a general indication of in vivo iNOS activity, or in the case of the L-NIL-MDP, local iNOS inhibition.

[6] = test system: VEGF; experiment: Serum VEGF ELISA in mice bearing B16-F0 melanoma tumors; format: in vivo; conditions: 5 days after single 100 μL intratumoral injection
Description: Evaluation of in vivo VEGF reduction using murine B16-F0 melanoma tumor model. C57BL/6J male mice were purchased from The Jackson Laboratory. […] All experiments were performed with approval of IACUC at Baylor College of Medicine (BCM) and followed established protocols. B16-F0 melanoma cell line was purchased from American Type Culture Collection (ATCC) and maintained according to manufacturer instructions (DMEM high-glucose with 10% fetal bovine serum and 1% penicillin/streptomycin). C57BL/6J mice were injected subcutaneously (s.c.) with 3×10^5 B16-F0 cells in a single flank. Once tumors became palpable (day 7 post-inoculation) mice were injected intratumorally (i.t.) with either vehicle buffer control Hank's Balanced Salt Solution (HBSS), free L-NIL dissolved in HBSS at 20 mM, K2-MDP hydrogel at 1 wt. % (5.6 mM peptide), or L-NIL-MDP hydrogel at 1 wt. % (5.2 mM peptide, or approximately 20 mM L-NIL functional groups). All injections were done using 100 μL total injection volume.
Mice were euthanized 5 days following i.t. injections and tumor/blood were collected. […] VEGF quantification of undiluted serum was performed using a mouse VEGF Quantikine ELISA kit (R&D Systems, Minneapolis, MN) following manufacturer's instructions. […] Statistical differences were evaluated using Tukey's multiple comparisons test. […]

SMILES: CC(=N)NCCCC[C@H](NC(=O)[C@H](CCCCNC(C)=N)NC(=O)[C@H](CC(C)C)NC(=O)[C@H](CO)NC(=O)[C@H](CC(C)C)NC(=O)[C@H](CO)NC(=O)[C@H](CC(C)C)NC(=O)[C@H](CO)NC(=O)[C@H](CC(C)C)NC(=O)[C@H](CO)NC(=O)[C@H](CC(C)C)NC(=O)[C@H](CO)NC(=O)[C@H](CC(C)C)NC(=O)[C@H](CO)NC(=O)[C@H](CCCCNC(C)=N)NC(=O)[C@H](CCCCNC(C)=N)NC(C)=O)C(N)=O [L-NIL-MDP] (Ac-[X1][X1]SLSLSLSLSLSL[X1][X1]-NH2)
- control of IgG release (in words) [1]: able to control the release of IgG more effectively
- viability of MOC1 cells (in words) [2]: high viability
- median survival [3]: 44 days
- CDN release profile (in words) [4]: comparable or even better controlled release
- nitrotyrosine staining intensity (in words) [5]: significantly lower; also recorded: lowest degree of nitrotyrosine staining
- reduction of systemic VEGF levels (in words) [6]: significantly reduced systemic VEGF levels; also recorded: Significant VEGF reduction
